Article PMC11921695 (BMC Cancer, 2025)

Test system: patients with HIV-associated KS

Cn1cnc2c(F)c(Nc3ccc(Br)cc3Cl)c(C(=O)NOCCO)cc21 [selumetinib, 6-(4-Bromo-2-chloro-phenylamino)-7-fluro-3-methyl-3 H-benzoimidazole-5-carboxylic acid (2-hydroxy-ethoxy)-amide hydrogen sulphate]
29: Skin and subcutaneous tissue disorders: Adverse Events Grade 1 E (E = events, any dose)
33: General disorders and administration site conditions: Adverse Events Grade 1 E (E = events, any dose)
13: ALT Increased: Number of AEs reported (CTCAE Grade ≤2) | Gastrointestinal disorders: Adverse Events Grade 2 E (E = events, any dose) | Metabolism and nutrition disorders: Adverse Events Grade 1 E (E = events, any dose)
17: Skin and subcutaneous tissue disorders: Adverse Events Grade 2 E (E = events, any dose)
12: Albumin Decreased: Number of AEs reported (CTCAE Grade ≤2)
4: Blood and lymphatic system disorders: Adverse Reactions Grade 1 E (E = events, any dose) | Infections and infestations: Adverse Reactions Grade 2 E (E = events, any dose) | Musculoskeletal and connective tissue disorders: Adverse Events Grade 1 E (E = events, any dose) | Blood and lymphatic system disorders: Adverse Events Grade 1 N (N = patients, any dose)
81: Investigations: Adverse Reactions Grade 1 E (E = events, any dose)
5: Blood and lymphatic system disorders: Adverse Events Grade 1 E (E = events, any dose) | General disorders and administration site conditions: Adverse Events Grade 2 E (E = events, any dose) | Nervous system disorders: Adverse Reactions Grade 1 E (E = events, any dose) | Respiratory, thoracic and mediastinal disorders: Adverse Reactions Grade 1 E (E = events, any dose)
133: Investigations: Adverse Events Grade 1 E (E = events, any dose)
7: Investigations: Adverse Events Grade 2 E (E = events, any dose) | Nervous system disorders: Adverse Events Grade 1 E (E = events, any dose)
9: Eye disorders: Adverse Events Grade 1 E (E = events, any dose) | Gastrointestinal disorders: Adverse Reactions Grade 2 E (E = events, any dose) | Metabolism and nutrition disorders: Adverse Reactions Grade 1 E (E = events, any dose)
23: General disorders and administration site conditions: Adverse Reactions Grade 1 E (E = events, any dose)
11: AST Increased: Number of AEs reported (CTCAE Grade ≤2) | Nausea: Number of AEs reported (CTCAE Grade ≤2) | Vomiting: Number of AEs reported (CTCAE Grade ≤2) | Respiratory, thoracic and mediastinal disorders: Adverse Events Grade 1 E (E = events, any dose)
1: Blood and lymphatic system disorders: Adverse Events Grade 2 E (E = events, any dose) | Blood and lymphatic system disorders: Adverse Reactions Grade 2 E (E = events, any dose) | Cardiac disorders: Adverse Events Grade 1 E (E = events, any dose) | General disorders and administration site conditions: Adverse Events Grade3 E (E = events, any dose) | Infections and infestations: Adverse Reactions Grade 1 E (E = events, any dose) | Renal and urinary disorders: Adverse Reactions Grade 1 E (E = events, any dose) | Respiratory, thoracic and mediastinal disorders: Adverse Reactions Grade 2 E (E = events, any dose) | Blood and lymphatic system disorders: Adverse Events Grade 2 N (N = patients, any dose)
10: Fatigue: Number of AEs reported (CTCAE Grade ≤2)
14: CPK Increased: Number of AEs reported (CTCAE Grade ≤2)
0: Blood and lymphatic system disorders: Adverse Events Grade3 E (E = events, any dose) | Blood and lymphatic system disorders: Adverse Reactions Grade 3 E (E = events, any dose) | Cardiac disorders: Adverse Events Grade 2 E (E = events, any dose) | Cardiac disorders: Adverse Events Grade3 E (E = events, any dose) | Cardiac disorders: Adverse Reactions Grade 1 E (E = events, any dose) | Cardiac disorders: Adverse Reactions Grade 2 E (E = events, any dose) | Cardiac disorders: Adverse Reactions Grade 3 E (E = events, any dose) | Eye disorders: Adverse Events Grade3 E (E = events, any dose) | Eye disorders: Adverse Reactions Grade 3 E (E = events, any dose) | Gastrointestinal disorders: Adverse Events Grade3 E (E = events, any dose) | Gastrointestinal disorders: Adverse Reactions Grade 3 E (E = events, any dose) | General disorders and administration site conditions: Adverse Reactions Grade 3 E (E = events, any dose) | Infections and infestations: Adverse Events Grade3 E (E = events, any dose) | Infections and infestations: Adverse Reactions Grade 3 E (E = events, any dose) | Injury, poisoning and procedural complications: Adverse Events Grade3 E (E = events, any dose) | Injury, poisoning and procedural complications: Adverse Reactions Grade 1 E (E = events, any dose) | Injury, poisoning and procedural complications: Adverse Reactions Grade 2 E (E = events, any dose) | Injury, poisoning and procedural complications: Adverse Reactions Grade 3 E (E = events, any dose) | Investigations: Adverse Reactions Grade 3 E (E = events, any dose) | Metabolism and nutrition disorders: Adverse Events Grade 2 E (E = events, any dose) | Metabolism and nutrition disorders: Adverse Events Grade3 E (E = events, any dose) | Metabolism and nutrition disorders: Adverse Reactions Grade 2 E (E = events, any dose) | Metabolism and nutrition disorders: Adverse Reactions Grade 3 E (E = events, any dose) | Musculoskeletal and connective tissue disorders: Adverse Events Grade 2 E (E = events, any dose) | Musculoskeletal and connective tissue disorders: Adverse Events Grade3 E (E = events, any dose) | Musculoskeletal and connective tissue disorders: Adverse Reactions Grade 2 E (E = events, any dose) | Musculoskeletal and connective tissue disorders: Adverse Reactions Grade 3 E (E = events, any dose) | Nervous system disorders: Adverse Events Grade 2 E (E = events, any dose) | Nervous system disorders: Adverse Events Grade3 E (E = events, any dose) | Nervous system disorders: Adverse Reactions Grade 2 E (E = events, any dose) | Nervous system disorders: Adverse Reactions Grade 3 E (E = events, any dose) | Psychiatric disorders: Adverse Events Grade 2 E (E = events, any dose) | Psychiatric disorders: Adverse Events Grade3 E (E = events, any dose) | Psychiatric disorders: Adverse Reactions Grade 2 E (E = events, any dose) | Psychiatric disorders: Adverse Reactions Grade 3 E (E = events, any dose) | Renal and urinary disorders: Adverse Events Grade 2 E (E = events, any dose) | Renal and urinary disorders: Adverse Events Grade3 E (E = events, any dose) | Renal and urinary disorders: Adverse Reactions Grade 2 E (E = events, any dose) | Renal and urinary disorders: Adverse Reactions Grade 3 E (E = events, any dose) | Respiratory, thoracic and mediastinal disorders: Adverse Events Grade3 E (E = events, any dose) | Respiratory, thoracic and mediastinal disorders: Adverse Reactions Grade 3 E (E = events, any dose) | Vascular disorders: Adverse Events Grade 2 E (E = events, any dose) | Vascular disorders: Adverse Events Grade3 E (E = events, any dose) | Vascular disorders: Adverse Reactions Grade 1 E (E = events, any dose) | Vascular disorders: Adverse Reactions Grade 2 E (E = events, any dose) | Vascular disorders: Adverse Reactions Grade 3 E (E = events, any dose)
44: Gastrointestinal disorders: Adverse Reactions Grade 1 E (E = events, any dose)
three: grade 3 ARs, all rash acneiform (75 mg bd selumetinib)
3: Eye disorders: Adverse Events Grade 2 E (E = events, any dose) | Eye disorders: Adverse Reactions Grade 2 E (E = events, any dose) | Injury, poisoning and procedural complications: Adverse Events Grade 2 E (E = events, any dose) | Psychiatric disorders: Adverse Events Grade 1 E (E = events, any dose) | Psychiatric disorders: Adverse Reactions Grade 1 E (E = events, any dose) | Skin and subcutaneous tissue disorders: Adverse Events Grade3 E (E = events, any dose) | Skin and subcutaneous tissue disorders: Adverse Reactions Grade 3 E (E = events, any dose)
24: Skin and subcutaneous tissue disorders: Adverse Reactions Grade 1 E (E = events, any dose)
47: Gastrointestinal disorders: Adverse Events Grade 1 E (E = events, any dose)
6: Eye disorders: Adverse Reactions Grade 1 E (E = events, any dose) | Infections and infestations: Adverse Events Grade 2 E (E = events, any dose) | Investigations: Adverse Reactions Grade 2 E (E = events, any dose)
16: patients who experienced at least one adverse event (AE) (16 treated patients) | Skin and subcutaneous tissue disorders: Adverse Reactions Grade 2 E (E = events, any dose)
2: General disorders and administration site conditions: Adverse Reactions Grade 2 E (E = events, any dose) | Infections and infestations: Adverse Events Grade 1 E (E = events, any dose) | Injury, poisoning and procedural complications: Adverse Events Grade 1 E (E = events, any dose) | Investigations: Adverse Events Grade3 E (E = events, any dose) | Musculoskeletal and connective tissue disorders: Adverse Reactions Grade 1 E (E = events, any dose) | Renal and urinary disorders: Adverse Events Grade 1 E (E = events, any dose) | Respiratory, thoracic and mediastinal disorders: Adverse Events Grade 2 E (E = events, any dose) | Vascular disorders: Adverse Events Grade 1 E (E = events, any dose)
22: Red Blood Cell Count Decreased: Number of AEs reported (CTCAE Grade ≤2)
